# According to ChEMBL document CHEMBL5214935, “Discovery of a potent M5 antagonist with improved clearance profile. Part 1: Piperidine amide-based antagonists” (Bioorg Med Chem Lett, 2022):
# Positions count from the first letter of the chain named.
# How the values were obtained:
# [1] = molecular target: T1, Muscarinic acetylcholine receptor M5 (Homo sapiens, UniProt P08912); test: Antagonist activity at human muscarinic M5 receptor expressed in CHO cells in the presence of acetylcholine by calcium mobilisation assay; type: functional, cell-based
# T1 sequence (P08912 whole entry): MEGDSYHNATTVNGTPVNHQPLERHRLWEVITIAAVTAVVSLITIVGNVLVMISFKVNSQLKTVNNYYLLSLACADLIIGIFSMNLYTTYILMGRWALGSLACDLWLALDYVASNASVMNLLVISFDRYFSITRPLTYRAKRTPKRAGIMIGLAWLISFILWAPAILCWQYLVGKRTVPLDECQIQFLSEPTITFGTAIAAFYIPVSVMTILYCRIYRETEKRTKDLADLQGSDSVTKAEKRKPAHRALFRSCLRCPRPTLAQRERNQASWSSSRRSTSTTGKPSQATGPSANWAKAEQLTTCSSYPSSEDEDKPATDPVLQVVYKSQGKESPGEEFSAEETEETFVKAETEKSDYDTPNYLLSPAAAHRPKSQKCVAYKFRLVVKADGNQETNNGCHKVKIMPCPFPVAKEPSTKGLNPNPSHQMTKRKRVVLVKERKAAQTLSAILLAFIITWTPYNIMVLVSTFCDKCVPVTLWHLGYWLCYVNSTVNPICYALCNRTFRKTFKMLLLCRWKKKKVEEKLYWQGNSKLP
# [2] = molecular target: T2, Muscarinic acetylcholine receptor M1 (Homo sapiens, UniProt P11229); test: Antagonist activity at human muscarinic M1 receptor; type: functional
# T2 sequence (P11229 whole entry): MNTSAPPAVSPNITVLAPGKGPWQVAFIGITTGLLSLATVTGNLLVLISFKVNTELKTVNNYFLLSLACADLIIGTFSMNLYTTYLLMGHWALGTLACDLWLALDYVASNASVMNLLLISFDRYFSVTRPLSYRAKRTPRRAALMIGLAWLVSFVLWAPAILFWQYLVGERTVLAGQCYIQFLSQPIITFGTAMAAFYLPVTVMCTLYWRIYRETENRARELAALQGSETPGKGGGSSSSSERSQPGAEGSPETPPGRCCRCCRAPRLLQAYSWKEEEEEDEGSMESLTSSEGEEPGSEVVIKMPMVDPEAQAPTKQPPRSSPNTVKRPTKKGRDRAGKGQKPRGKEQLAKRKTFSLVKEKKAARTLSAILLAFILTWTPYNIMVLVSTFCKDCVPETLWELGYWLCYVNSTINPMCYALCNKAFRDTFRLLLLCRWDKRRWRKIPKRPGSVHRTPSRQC
# [3] = molecular target: T3, Muscarinic acetylcholine receptor M5 (Homo sapiens) (UniProt P08912); test: Antagonist activity at human muscarinic M5 receptor expressed in CHO cells assessed as minimal acetylcholine response by calcium mobilisation assay relative to control; type: functional, cell-based; parameters: concentration or dose not given beside the values
# T3 sequence (whole entry): T1 sequence (P08912 whole entry)
# [4] = Intrinsic clearance in rat; type: ADME
# [5] = Intrinsic clearance in human; type: ADME
# [6] = molecular target: T4, Muscarinic acetylcholine receptor M1 (Rattus norvegicus) (UniProt P08482); test: Antagonist activity at rat muscarinic M1 receptor expressed in CHO cells assessed as minimal acetylcholine response by calcium mobilisation assay relative to control; type: functional, cell-based; parameters: scale not given: the % may be the effect or the level left; conditions: filed as antagonist
# T4 sequence (whole entry): T2 sequence (P11229 whole entry) with A5V, T254S, P309S, R320K, A337G, I413V
# [7] = Unbound fraction in rat brain; type: ADME, tissue-based
# [8] = Clearance in rat plasma; type: ADME, cell-free
# [9] = Volume of distribution at steady state in rat; type: ADME; conditions: in vivo, read-out: Vdss
# [10] = molecular target: T5, Muscarinic acetylcholine receptor M5 (Rattus norvegicus, UniProt P08911); test: Antagonist activity at rat muscarinic M5 receptor; type: functional
# T5 sequence (P08911 whole entry): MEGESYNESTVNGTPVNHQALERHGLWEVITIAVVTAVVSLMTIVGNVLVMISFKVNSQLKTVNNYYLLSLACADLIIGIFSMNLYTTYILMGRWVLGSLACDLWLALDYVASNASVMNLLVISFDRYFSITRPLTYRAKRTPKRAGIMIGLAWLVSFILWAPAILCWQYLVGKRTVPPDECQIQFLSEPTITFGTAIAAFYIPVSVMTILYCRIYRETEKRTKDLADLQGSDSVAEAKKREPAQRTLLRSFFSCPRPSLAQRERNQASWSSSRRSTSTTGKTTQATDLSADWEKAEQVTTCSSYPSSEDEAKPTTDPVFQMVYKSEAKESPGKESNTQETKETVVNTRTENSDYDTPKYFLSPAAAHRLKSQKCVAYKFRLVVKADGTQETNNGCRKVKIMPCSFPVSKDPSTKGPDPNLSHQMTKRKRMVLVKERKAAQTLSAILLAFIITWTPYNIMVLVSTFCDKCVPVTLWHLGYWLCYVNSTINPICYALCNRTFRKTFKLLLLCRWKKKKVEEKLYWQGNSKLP
# P-glycoprotein (human) = test: Efflux ratio of permeability in MDCK-MDR1 cells expressing human P-glycoprotein; type: ADME, cell-based, Canis lupus familiaris; conditions: dog
# [11] = molecular target: T6, Muscarinic acetylcholine receptor M1 (Rattus norvegicus, UniProt P08482); test: Antagonist activity at rat muscarinic M1 receptor expressed in CHO cells in the presence of acetylcholine by calcium mobilisation assay; type: functional, cell-based
# T6 sequence (P08482 whole entry): T2 sequence (P11229 whole entry) with A5V, T254S, P309S, R320K, A337G, I413V
# [12] = molecular target: T7, Muscarinic acetylcholine receptor M5 (Rattus norvegicus) (UniProt P08911); test: Antagonist activity at rat muscarinic M5 receptor assessed as minimal acetylcholine response relative to control; type: functional; parameters: scale not given: the % may be the effect or the level left; conditions: filed as antagonist
# T7 sequence (whole entry): T5 sequence (P08911 whole entry)
# [13] = molecular target: T2, Muscarinic acetylcholine receptor M1; test: Antagonist activity at human muscarinic M1 receptor expressed in CHO cells in the presence of acetylcholine by calcium mobilisation assay; type: functional, cell-based
# [14] = Unbound fraction in rat plasma; type: ADME, cell-free
# [15] = Apparent permeability in MDCK-MDR1 cells; type: ADME, cell-based, Canis lupus familiaris; conditions: dog
# [16] = molecular target: T8, Muscarinic acetylcholine receptor M1 (Homo sapiens) (UniProt P11229); test: Antagonist activity at human muscarinic M1 receptor expressed in CHO cells assessed as minimal acetylcholine response by calcium mobilisation assay; type: functional, cell-based; parameters: scale not given: the % may be the effect or the level left
# T8 sequence (whole entry): T2 sequence (P11229 whole entry)
# [17] = Elimination half life in rat; type: ADME; conditions: in vivo, read-out: beta t1/2
# [18] = Unbound fraction in human plasma; type: ADME, cell-free
structure (smiles),measurement,setting,value
O=C(Nc1ccc2scnc2c1)C1CCN(S(=O)(=O)c2ccc(Cl)s2)CC1,IC50,[1],2.8 µM
same,IC50,[2],> 10 µM
O=C(Nc1ccc2scnc2c1)C1CCN(S(=O)(=O)c2ccc3ncsc3c2)CC1,Activity,[3]; filed as antagonist,2%
same,IC50,[1],0.266 µM
same,CLint scaled,[4],4.86 L/h/kg
same,CLint scaled,[5],2.16 L/h/kg
O=C(Nc1ccc2snnc2c1)C1CCN(S(=O)(=O)c2ccc3c(c2)CCO3)CC1,Activity,[3]; filed as antagonist,10%
same,IC50,[1],0.143 µM
same,CLint scaled,[4],48.2 L/h/kg
same,CLint scaled,[5],6.48 L/h/kg
Cc1ccc(S(=O)(=O)N2CCC(C(=O)Nc3ccc4scnc4c3)CC2)cn1,Activity,[3]; filed as antagonist,3%
same,CLint scaled,[4],2.58 L/h/kg
same,CLint scaled,[5],0.3 L/h/kg
Cc1nn(C)cc1S(=O)(=O)N1CCC(C(=O)Nc2ccc3scnc3c2)CC1,Activity,[6],35%
same,fraction unbound,[7],0.2
same,clearance,[8],0.666 L/h/kg
same,Vd,[9],0.61 L/kg
same,IC50,[10],1.33 µM
same,efflux ratio,P-glycoprotein (human),110
same,IC50,[11],> 10 µM
same,Activity,[12],4%
same,Activity,[3]; filed as antagonist,2%
same,IC50,[13],> 10 µM
same,Fu,[14],0.03
same,CLint scaled,[4],2.7 L/h/kg
same,Papp,[15],0.374 10^-6 cm/s
same,CLint scaled,[5],0.3 L/h/kg
same,Activity,[16],50%
same,half-life,[17],1.43 h
same,Fu,[18],0.14
Cc1nc2cc(NC(=O)C3CCN(S(=O)(=O)c4ccc5c(c4)CCO5)CC3)ccc2s1,Activity,[3]; filed as antagonist,19%
same,IC50,[1],0.594 µM
same,CLint scaled,[4],25.6 L/h/kg
same,CLint scaled,[5],4.44 L/h/kg
O=C(Nc1ccc2scnc2c1)C1CCN(S(=O)(=O)c2ccc3ncccc3c2)CC1,Activity,[3]; filed as antagonist,2%
same,CLint scaled,[4],12.7 L/h/kg
same,CLint scaled,[5],1.2 L/h/kg
O=C(Nc1ccc2cccnc2c1)C1CCN(S(=O)(=O)c2ccc3c(c2)CCO3)CC1,Activity,[3]; filed as antagonist,3%
same,CLint scaled,[4],44.4 L/h/kg
same,CLint scaled,[5],5.94 L/h/kg
O=C(Nc1ccc2scnc2c1)C1CCN(S(=O)(=O)c2cccnc2)CC1,Activity,[3]; filed as antagonist,2%
same,IC50,[1],0.059 µM
same,CLint scaled,[4],12.4 L/h/kg
same,CLint scaled,[5],1.14 L/h/kg
O=C(Nc1ccc2scnc2c1)C1CCN(S(=O)(=O)c2ccc(Cl)nc2)CC1,Activity,[3]; filed as antagonist,3%
same,IC50,[1],0.168 µM
same,CLint scaled,[4],3.72 L/h/kg
same,CLint scaled,[5],1.26 L/h/kg
O=C(Nc1ccc2scnc2c1)C1CCN(S(=O)(=O)c2ccc3c(c2)CCO3)CC1,IC50,[10],0.249 µM
same,IC50,[2],2.14 µM
same,CLint scaled,[4],22.4 L/h/kg
CN(C(=O)C1CCN(S(=O)(=O)c2ccc3c(c2)CCO3)CC1)c1ccc2scnc2c1,Activity,[3],51%
Cc1ncc(S(=O)(=O)N2CC[C@H](C(=O)Nc3ccc4scnc4c3)[C@@H](F)C2)s1 (racemic),Activity,[6],3%
same,fraction unbound,[7],0.06
same,IC50,[11],0.3 µM
same,Activity,[3]; filed as antagonist,2%
same,IC50,[1],0.013 µM
same,Fu,[14],0.007
same,CLint scaled,[4],4.86 L/h/kg
same,CLint scaled,[5],0.36 L/h/kg
same,Fu,[18],0.02
C[C@@H]1C[C@@H](C(=O)Nc2ccc3scnc3c2)CCN1S(=O)(=O)c1ccc2c(c1)CCO2 (racemic),Activity,[3]; filed as antagonist,3%
same,IC50,[1],0.094 µM
same,CLint scaled,[4],31.2 L/h/kg
same,CLint scaled,[5],6.84 L/h/kg
CC1COc2ccc(S(=O)(=O)N3CCC(C(=O)Nc4ccc5scnc5c4)CC3)cc21 (racemic),Activity,[3]; filed as antagonist,3%
same,IC50,[1],0.109 µM
same,CLint scaled,[4],61.3 L/h/kg
same,CLint scaled,[5],15.8 L/h/kg
Cc1nn(C)cc1S(=O)(=O)N1CC[C@H](C(=O)Nc2ccc3scnc3c2)[C@@H](F)C1 (racemic),fraction unbound,[7],0.17
same,IC50,[10],0.572 µM
same,efflux ratio,P-glycoprotein (human),110
same,Activity,[12],3%
same,Activity,[3]; filed as antagonist,3%
same,IC50,[13],> 10 µM
same,IC50,[1],0.309 µM
same,Fu,[14],0.02
same,CLint scaled,[4],15.6 L/h/kg
same,Papp,[15],0.431 10^-6 cm/s
same,CLint scaled,[5],0.42 L/h/kg
same,Activity,[16],51%
same,Fu,[18],0.26
Cn1ncc(S(=O)(=O)N2CC[C@H](C(=O)Nc3ccc4scnc4c3)[C@@H](F)C2)c1Cl (racemic),Activity,[6],3%
same,fraction unbound,[7],0.05
same,IC50,[11],0.11 µM
same,Activity,[3]; filed as antagonist,2%
same,IC50,[1],0.01 µM
same,Fu,[14],0.005
same,CLint scaled,[4],2.94 L/h/kg
same,CLint scaled,[5],0.36 L/h/kg
same,Fu,[18],0.02
C[C@H]1CN(S(=O)(=O)c2ccc3c(c2)CCO3)CC[C@@H]1C(=O)Nc1ccc2scnc2c1 (racemic),Activity,[3]; filed as antagonist,3%
same,IC50,[1],1.53 µM
same,CLint scaled,[4],30.4 L/h/kg
same,CLint scaled,[5],4.74 L/h/kg
CC1Cc2cc(S(=O)(=O)N3CCC(C(=O)Nc4ccc5scnc5c4)CC3)ccc2O1 (racemic),Activity,[3]; filed as antagonist,16%
same,IC50,[1],> 10 µM
C[C@@H]1CN(S(=O)(=O)c2ccc3c(c2)CCO3)CC[C@@H]1C(=O)Nc1ccc2scnc2c1 (racemic),Activity,[3]; filed as antagonist,3%
same,IC50,[1],0.419 µM
same,CLint scaled,[4],33 L/h/kg
same,CLint scaled,[5],11.9 L/h/kg
C[C@@H]1C[C@H](C(=O)Nc2ccc3scnc3c2)CCN1S(=O)(=O)c1ccc2c(c1)CCO2 (racemic),Activity,[3]; filed as antagonist,2%
same,IC50,[1],0.134 µM
same,CLint scaled,[4],34.3 L/h/kg
same,CLint scaled,[5],15.8 L/h/kg
